Measured values as given in patent publication US7498336B2, “Deazaflavin compounds and methods of use thereof” (The United States of America as represented by the …, priority 2003, dated 2009).
“Also recorded” adds a separate entry of the source.

How the values were obtained:
Nedd4 = target: T1, Nedd4 (Homo sapiens, UniProt P46934); assay: In vitro ubiquitination assay (E1+E2+E3) with unrelated E3 ligase; format: biochemical; conditions: gel assay, FIG. 2B, 2C
T1 construct: made in house
T1 sequence (P46934 1-1319): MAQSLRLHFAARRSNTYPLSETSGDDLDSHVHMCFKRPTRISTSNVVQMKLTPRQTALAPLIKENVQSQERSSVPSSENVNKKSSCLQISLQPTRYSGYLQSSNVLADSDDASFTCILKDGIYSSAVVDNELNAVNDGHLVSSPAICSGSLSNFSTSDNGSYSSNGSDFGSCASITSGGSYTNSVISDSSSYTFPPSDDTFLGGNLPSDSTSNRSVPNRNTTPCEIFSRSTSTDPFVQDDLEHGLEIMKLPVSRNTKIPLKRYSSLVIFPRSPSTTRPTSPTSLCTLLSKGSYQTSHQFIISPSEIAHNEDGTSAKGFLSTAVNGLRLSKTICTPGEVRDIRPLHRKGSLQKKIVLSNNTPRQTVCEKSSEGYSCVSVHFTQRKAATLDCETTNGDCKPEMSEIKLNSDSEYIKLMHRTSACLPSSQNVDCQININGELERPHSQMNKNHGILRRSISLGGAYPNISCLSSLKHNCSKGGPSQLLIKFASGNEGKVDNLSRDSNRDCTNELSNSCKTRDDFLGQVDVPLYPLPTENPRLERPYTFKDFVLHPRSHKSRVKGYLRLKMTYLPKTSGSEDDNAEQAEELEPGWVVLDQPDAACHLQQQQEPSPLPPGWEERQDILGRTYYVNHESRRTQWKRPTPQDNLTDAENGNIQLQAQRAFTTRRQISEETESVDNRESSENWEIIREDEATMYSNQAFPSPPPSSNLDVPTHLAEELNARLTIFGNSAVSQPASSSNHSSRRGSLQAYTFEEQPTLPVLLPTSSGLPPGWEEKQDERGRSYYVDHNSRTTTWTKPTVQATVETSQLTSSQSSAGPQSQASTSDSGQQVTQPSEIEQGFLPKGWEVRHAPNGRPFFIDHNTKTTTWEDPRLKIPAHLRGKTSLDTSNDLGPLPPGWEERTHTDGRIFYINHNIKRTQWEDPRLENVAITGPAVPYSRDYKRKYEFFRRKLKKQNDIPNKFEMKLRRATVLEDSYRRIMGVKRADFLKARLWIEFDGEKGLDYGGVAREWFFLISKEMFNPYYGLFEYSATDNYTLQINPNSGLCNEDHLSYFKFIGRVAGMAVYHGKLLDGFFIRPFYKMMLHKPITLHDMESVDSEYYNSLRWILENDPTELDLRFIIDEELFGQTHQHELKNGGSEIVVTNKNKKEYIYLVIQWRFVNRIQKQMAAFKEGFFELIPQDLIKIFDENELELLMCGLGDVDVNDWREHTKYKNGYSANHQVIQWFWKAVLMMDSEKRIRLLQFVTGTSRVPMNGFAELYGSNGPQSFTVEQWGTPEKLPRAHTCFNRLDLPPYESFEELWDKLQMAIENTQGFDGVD
Experimental: 1 pmole per experimental point of bacterially expressed GST-MDM2 (or GST-Nedd) was coupled to glutathione Sepharose (GS) for 30 minutes at room temperature with tumbling, followed by 3× wash with 50 mM Tris pH 7.5. Following this, 20 μl of 1× buffer was added (40 μl 10× reaction buffer*, 40 μl 10× PCK**, 320 μl dH2O). The test compound in DMSO is then added to the desired concentration with an equal volume of DMSO used as a control. Samples are incubated with shaking for 1 hr at 23° C. To carry out the reaction, a pre-made cocktail of Rabbit E1 (Calbiochem #6620700)/UbcH5B/^32P Ub cocktail (1 μl/0.5 μl/1 μl) is added followed by 15 minutes shaking at 30° C. The reaction is terminated by addition of 8 μl 4× reducing SDS-PAGE loading buffer. After dissociating proteins from the beads at 100° C. for 2 minutes, samples are resolved on 6% PAGE followed by exposure of the dried gel to phosphor screen. Note: ^32P Ub is derived from GST-Ub that has been engineered to include a PKA phosphorylation site. This fusion protein is purified on glutathione Sepharose, phosphorylated, following this, the ^32P Ub ubiquitin is cleaved and purified away from the thrombin.

[1] = target: T2, p53 pre-bound to GST-MDM2 (Homo sapiens, UniProt Q00987); assay: In vitro p53 ubiquitination assay; format: biochemical; conditions: cellular p53 pre-bound to GST-MDM2, FIG. 2G
T2 construct: made in house; host or cells: GST-MDM2: bacteria; p53: SaOS-p53 inducible cells
T2 sequence (Q00987 whole entry): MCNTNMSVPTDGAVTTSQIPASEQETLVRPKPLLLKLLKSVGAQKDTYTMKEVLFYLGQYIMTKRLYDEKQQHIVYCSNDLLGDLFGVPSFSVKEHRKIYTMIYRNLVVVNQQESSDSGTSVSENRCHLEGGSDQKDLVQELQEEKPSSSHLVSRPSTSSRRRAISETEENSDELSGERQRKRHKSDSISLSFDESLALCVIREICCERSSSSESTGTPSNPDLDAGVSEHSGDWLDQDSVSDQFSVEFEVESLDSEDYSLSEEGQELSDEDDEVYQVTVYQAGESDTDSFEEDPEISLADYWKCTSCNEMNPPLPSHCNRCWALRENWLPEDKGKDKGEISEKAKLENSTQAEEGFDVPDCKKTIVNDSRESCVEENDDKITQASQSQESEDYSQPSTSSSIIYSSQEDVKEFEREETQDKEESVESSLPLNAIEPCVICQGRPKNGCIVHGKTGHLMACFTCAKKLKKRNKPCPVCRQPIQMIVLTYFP
T2 sequence (P04637 whole entry partner): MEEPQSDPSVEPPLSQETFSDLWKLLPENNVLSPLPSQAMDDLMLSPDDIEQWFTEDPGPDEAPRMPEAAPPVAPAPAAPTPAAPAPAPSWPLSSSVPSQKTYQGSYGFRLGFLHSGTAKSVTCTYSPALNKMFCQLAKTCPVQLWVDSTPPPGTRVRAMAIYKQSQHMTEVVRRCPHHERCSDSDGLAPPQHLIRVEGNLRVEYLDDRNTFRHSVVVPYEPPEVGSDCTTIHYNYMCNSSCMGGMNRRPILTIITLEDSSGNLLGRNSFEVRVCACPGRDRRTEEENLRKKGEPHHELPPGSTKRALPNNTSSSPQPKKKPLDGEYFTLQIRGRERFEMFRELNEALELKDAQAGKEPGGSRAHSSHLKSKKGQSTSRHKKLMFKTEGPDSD
Experimental: d. In Vitro R53 Ubiguitination Assay
p53 protein from SaOS-p53 inducible cell lysate was purified from cells using GST-MDM2 (5 pmol) pre-bound to GS beads. Samples were then incubated with test compounds as above. Subsequently 2 μl rabbit E1, 1 μl UbcH5b, and 10 μg of ubiquitin were added. After reaction for 15 min at 23° C., samples were subject to SDS-PAGE under reducing conditions, transferred to nitrocellulose membranes and immunoblotted with anti-p53 (DO-1) followed by ECL using standard techniques.

O=c1nc2n(-c3cccc(Cl)c3)c3ccc([N+](=O)[O-])cc3cc-2c(=O)[nH]1 [Compound 98C07, 10-(-3-chloro-phenyl)-7-nitro-10H-pyrimido[4,5-b]quinoline-2,4-dione]
selectivity of inhibition of MDM2 versus unrelated E3 ligase Nedd4 (Nedd4): shows some selectivity as an inhibitor of MDM2; also recorded: specificity of MDM2 | inhibition of p53 ubiquitination by MDM2 [1]: significant dose-dependent inhibition of p53 ubiquitination
